Data set [1] concerns panel of human tumor cell lines (A431, MCF-7, A375, HCT-15, SW480, CaCo-2, DLD-1). Nature of the data set: MTT cytotoxicity, comparison over the Table 1 panel. Type of data set: cell-based. The following applies: average over seven cell lines of Table 1. As for the experimental part: (§1) After 24 h, the medium was removed and replaced with a fresh one containing the compound to be studied, at the appropriate concentration, dissolved in 0.9% sodium chloride solution just before use. Triplicate cultures were established for each treatment. After 72 h, each well was treated with […] of a 5 mg mL^−1 MTT saline solution and, after 5 h of incubation, 100 μL of a sodium dodecylsulfate (SDS) solution in 0.01 M HCl were added. After an overnight incubation, the inhibition of cell growth induced by the tested complexes was determined by measuring the absorbance of each well at 570 nm using a BioRad 680 microplate reader. Mean absorbance for each drug dose was expressed as percentage of the control and plotted vs. drug concentration. Dose-response curves were fitted and IC50 values were calculated with four parameter logistic model (4PL).
The cytotoxicity was evaluated by means of the MTT test for 72 h treatment with increasing concentrations of the tested compounds.

The subject of data set [2] is 2008/C13*, LoVo/LoVo-OXP, LoVo MDR. Nature of the data set: MTT cytotoxicity, comparison over the Table 2 cell lines. Type of data set: cell-based, human. The following applies: 2008 ovarian and LoVo colon sensitive cells. How it is done:
as §1
(§2) A LoVo cell line retaining a multidrug resistance phenotype was also considered (LoVo MDR). Cross-resistance profiles were evaluated by means of the resistance factor (RF), which is defined as the ratio between the IC50 value for the resistant cells and that arising from the sensitive cells (Table 2).

A further data set relates to A431. Nature of the data set: MTT cytotoxicity assay, 72 h. It counts as cell-based, human. As to conditions: A431, cervix.
Excerpt: (§3) Human breast (MCF-7) and colon (HCT-15, DDL1, SW480 and CaCo-2) carcinoma cell lines along with melanoma (A375) were obtained from the American Type Culture Collection (ATCC, Rockville, Md.). A431 are human cervical carcinoma cells kindly provided by Prof. F. Zunino (Molecular Pharmacology Unit, Experimental Oncology and Molecular Medicine, Istituto Nazionale dei Tumori, Milan, Italy). […] G. Marverti (Dept. of Biomedical Science, University of Modena, Italy). LoVo human colon-carcinoma cell line and its multidrug-resistant sublime (LoVo MDR) were kindly provided by Prof F. Maj one (Department of Biology of Padova University, Italy). […] Cell lines were maintained in the logarithmic phase at 37° C. in a 5% carbon dioxide atmosphere using the following culture media containing 10% fetal calf serum (Euroclone, Milan, Italy), antibiotics (50 units mL^−1 penicillin and 50 μg mL^−1 streptomycin), and 2 mM L-glutamine in: i) RPMI-1640 medium (Euroclone) for MCF-7, HCT-15, A431, DLD 1, 2008, and C13* cells; ii) F-12 HAM'S (Sigma Chemical Co.) for LoVo, LoVo MDR, and LoVo-OXP cells; iii) DMEM for A375 and SW 480 cells; and iv) MEM for CaCo-2 cells.
(§4) The growth inhibitory effect towards tumor cell lines was evaluated by means of the MTT (3-(4,5-dimethylthiazol-2-yl)-2,5-diphenyltetrazolium bromide) assay (Alley, M. C., et al., Cancer Res. 1988, 48, 589-601).
as §1, with “Briefly, depending upon the growth characteristics of the cell line, 3-8×10^3 cells well^−1, were seeded in 96-well microplates in growth medium (100 μL) and then incubated at 37° C. in a 5% carbon dioxide atmosphere. After 24” for “After 24”
(§5) Compound 1 was prepared for the first time almost twenty years ago however, until now, it had been tested (both in vitro and in vivo) only in a limited number of tumor cell lines (Hoeschele, J. D., et al., J. Med. Chem. 1994, 37, 2630-2636 and Shamsuddin, S., et al., J. Inorg. Biochem. 1996, 61, 291-301). The Pt(II) and Pt(IV) complexes containing isomeric forms of diaminocyclohexane, [PtCl2(cis-1,4-DACHA](1), [PtCl2(1R,2R-DACH)] (2), [Pt(OXA)(cis-1,4-DACH)] (3), cis,trans,cis-[Pt^IVCl2(OH)2(cis-1,4-DACH)] (4), cis,trans,cis-[Pt^IVCl2(DCA)2(cis-1,4-DACH)] (5), [Pt(CBDCA)(cis-1,4-DACH)] (6), cis,trans,cis-[Pt^IV(OXA)(OH)2(cis-1,4-DACH)] (7), and cis,trans,cis-[Pt^IV(OXA)(DCA)2(cis-1,4-DACH)] (8) were evaluated for their cytotoxic activity towards a panel of human tumor cell lines including cervical (A431), breast (MCF-7), cancers along with a melanoma (A375) and 4 different colon cancer cell lines corresponding to different stages of the disease progression (HCT-15, SW480, CaCo-2, DLD-1). The cytotoxicity was evaluated by means of the MTT test for 72 h treatment with increasing concentrations of the tested compounds.
In general terms: Formazan colour is commonly taken as a measure of viable cells.

The next data set has as its system A375. Nature of the data set: MTT cytotoxicity assay, 72 h. As to conditions: A375, skin. It counts as cell-based, human.
Excerpt: as §3, §4
as §1, with “Briefly, depending upon the growth characteristics of the cell line, 3-8×10^3 cells well^−1, were seeded in 96-well microplates in growth medium (100 μL) and then incubated at 37° C. in a 5% carbon dioxide atmosphere. After 24” for “After 24”
as §5

Another data set concerns HCT-15. Description: MTT cytotoxicity assay, 72 h. It counts as cell-based, human. As to conditions: HCT-15, colon.
Excerpt: as §3, §4
as §1, with “Briefly, depending upon the growth characteristics of the cell line, 3-8×10^3 cells well^−1, were seeded in 96-well microplates in growth medium (100 μL) and then incubated at 37° C. in a 5% carbon dioxide atmosphere. After 24” for “After 24”
as §5

The next data set concerns MCF-7. Description: MTT cytotoxicity assay, 72 h. Type of data set: cell-based, human. The following applies: MCF-7, breast.
Excerpt: as §3, §4
as §1, with “Briefly, depending upon the growth characteristics of the cell line, 3-8×10^3 cells well^−1, were seeded in 96-well microplates in growth medium (100 μL) and then incubated at 37° C. in a 5% carbon dioxide atmosphere. After 24” for “After 24”
as §5

The next data set concerns SW480. Nature of the data set: MTT cytotoxicity assay, 72 h. Type of data set: cell-based, human. As to conditions: SW480, colon.
Excerpt: as §3, §4
as §1, with “Briefly, depending upon the growth characteristics of the cell line, 3-8×10^3 cells well^−1, were seeded in 96-well microplates in growth medium (100 μL) and then incubated at 37° C. in a 5% carbon dioxide atmosphere. After 24” for “After 24”
as §5

The subject of the next data set is DLD-1. Nature of the data set: MTT cytotoxicity assay, 72 h. As to conditions: DLD-1, colon. Type of data set: cell-based, human.
Excerpt: as §3, §4
as §1, with “Briefly, depending upon the growth characteristics of the cell line, 3-8×10^3 cells well^−1, were seeded in 96-well microplates in growth medium (100 μL) and then incubated at 37° C. in a 5% carbon dioxide atmosphere. After 24” for “After 24”
as §5

The test system of another data set is LoVo colon cancer cells. Nature of the data set: MTT cytotoxicity assay, cross-resistance profile. Type of data set: cell-based, human. The following applies: 72 h.
Excerpt: Human breast (MCF-7) and colon (HCT-15, DDL1, SW480 and CaCo-2) carcinoma cell lines along with melanoma (A375) were obtained from the American Type Culture Collection (ATCC, Rockville, Md.). A431 are human cervical carcinoma cells kindly provided by Prof. F. Zunino (Molecular Pharmacology Unit, Experimental Oncology and Molecular Medicine, Istituto Nazionale dei Tumori, Milan, Italy). […] G. Marverti (Dept. of Biomedical Science, University of Modena, Italy). LoVo human colon-carcinoma cell line and its multidrug-resistant sublime (LoVo MDR) were kindly provided by Prof F. Maj one (Department of Biology of Padova University, Italy).
as §4
as §1, with “Briefly, depending upon the growth characteristics of the cell line, 3-8×10^3 cells well^−1, were seeded in 96-well microplates in growth medium (100 μL) and then incubated at 37° C. in a 5% carbon dioxide atmosphere. After 24” for “After 24”
as §2

The test system of data set [3] is LoVo MDR multidrug resistant colon carcinoma subline. Description: MTT cytotoxicity assay, cross-resistance profile. It counts as cell-based, human. As to conditions: for R.F. (resistance factor): IC50 LoVo-MDR / IC50 LoVo; for IC50: LoVo-MDR, 72 h, MTT.
Excerpt: as §3, §4
as §1, with “Briefly, depending upon the growth characteristics of the cell line, 3-8×10^3 cells well^−1, were seeded in 96-well microplates in growth medium (100 μL) and then incubated at 37° C. in a 5% carbon dioxide atmosphere. After 24” for “After 24”
as §2
In Table 2 are also reported the results obtained in a multidrug resistant (MDR) colon carcinoma subline, LoVo MDR, in which the resistance to doxorubicin, a drug belonging to the MDR spectrum, is associated with an overexpression of multi-specific drug transporters, such as the 170 kDa P-glycoprotein (P-gp) (Wersinger, C., et al., Amino Acids 2000, 19, 667-685). It is well known that acquired MDR, whereby cells become refractory to multiple drugs, poses most important challenge to the success of anticancer chemotherapy.

Data set [4] has as its system C13* cisplatin resistant ovarian cancer cells. Nature of the data set: MTT cytotoxicity assay, cross-resistance profile. The following applies: for IC50: C13*, 72 h, MTT; for R.F. (resistance factor): IC50 C13* / IC50 2008, cross-resistance with cisplatin. It counts as cell-based, human.
Excerpt: as §3, §4
as §1, with “Briefly, depending upon the growth characteristics of the cell line, 3-8×10^3 cells well^−1, were seeded in 96-well microplates in growth medium (100 μL) and then incubated at 37° C. in a 5% carbon dioxide atmosphere. After 24” for “After 24”
as §2

Data set [5] has as its system LoVo-OXP oxaliplatin resistant colon cancer cells. Nature of the data set: MTT cytotoxicity assay, cross-resistance profile. It counts as cell-based, human. As to conditions: for R.F. (resistance factor): IC50 LoVo-OXP / IC50 LoVo, cross-resistance with oxaliplatin; for IC50: LoVo-OXP, 72 h, MTT.
Excerpt: as §3, §4
as §1, with “Briefly, depending upon the growth characteristics of the cell line, 3-8×10^3 cells well^−1, were seeded in 96-well microplates in growth medium (100 μL) and then incubated at 37° C. in a 5% carbon dioxide atmosphere. After 24” for “After 24”
as §2

Data set [6] concerns 2008 ovarian cancer cells. Description: MTT cytotoxicity assay, cross-resistance profile. Type of data set: cell-based, human. As to conditions: 72 h.
Excerpt: as §3, §4
as §1, with “Briefly, depending upon the growth characteristics of the cell line, 3-8×10^3 cells well^−1, were seeded in 96-well microplates in growth medium (100 μL) and then incubated at 37° C. in a 5% carbon dioxide atmosphere. After 24” for “After 24”
as §2

For `O=C1[O][Pt]2([NH]C3CCC(CC3)[NH]2)[O]C(=O)C12CCC2` [Compound 6, [SP-4-2-(cis)]-(1,4-cyclohexanediamine-N,N′)[cyclobutane-1,1-dicarboxylate-O,O′]platinum], the “average cytotoxic activity compared with reference drugs” value in [1] was “lower than oxaliplatin and cisplatin”. For the same compound, in data set [2], the “cytotoxic activity towards sensitive lines compared with reference drugs” value is “less effective than oxaliplatin and cisplatin”.

For the compound `O=C1[O][Pt]2([NH][C@H]3CC[C@H](CC3)[NH]2)[O]C1=O` [Compound 3, [SP-4-2-(cis)]-(1,4,cyclohexanediamine-N,N′)[ethanedioato(2)-O,O^1]platinum], the “average cytotoxic activity compared with reference drugs” value in [1] is “lower than that of oxaliplatin and comparable to that of compound 2 and cisplatin”. For the same compound, in data set [2], the “cytotoxic activity towards sensitive lines compared with reference drugs” value was “less effective than oxaliplatin and cisplatin towards ovarian sensitive cell line and rather similar to cisplatin against LoVo colon cancer cells”.

Consider `O=C([O][Pt]1([Cl])([Cl])([O]C(=O)C(Cl)Cl)[NH][C@H]2CC[C@H](CC2)[NH]1)C(Cl)Cl` [Compound 5, (OC-6-33)-dichloro(cis-1,4-cyclohexanediamine-N,N′)bisdichloroacetateplatinum], for which, in [1], the “average cytotoxic activity compared with reference drugs” value is “rather similar to oxaliplatin”. In addition, the “cytotoxic activity towards sensitive lines compared with reference drugs” value in data set [2] is “better than cisplatin and similar to oxaliplatin”.

In general, IC50 refers to the midpoint of a concentration-inhibition curve. Low values mean greater potency, high ones weaker potency. `O=C1[O][Pt]2([O]C(=O)C(Cl)Cl)([O]C(=O)C(Cl)Cl)([NH]C3CCC(CC3)[NH]2)[O]C1=O` [Compound 8, (OC-6-33)-[ethanedioato(2)-O,O′](cis-1,4-cyclohexanediamine-N,N′)bisdichloroacetateplatinum]: the IC50 in the data set on A431 came to 7.41 ± 2.11 µM; in the data set on A375 it was 4.99 ± 1.15 µM; in the data set on HCT-15, 13.7 ± 3.81 µM; in the data set on MCF-7 it was 12.6 ± 2.47 µM; in the data set with SW480, 10.6 ± 2.01 µM; with DLD-1 it was 8.26 ± 3.24 µM. The IC50 in the data set on LoVo colon cancer cells was 9.08 ± 2.16 µM; in [3], 11.9 ± 3.33 µM; in data set [4], 9.12 ± 2.79 µM; in data set [5], 11.1 ± 3.05 µM; in [6], 11.1 ± 3.28 µM. Besides, the “R.F. (resistance factor)” value in data set [3] was 1.3; in data set [4], 0.8; in data set [5], 1.2. Also, the “cytotoxic activity towards sensitive lines compared with reference drugs” value in data set [2] is “lower than cisplatin and oxaliplatin in ovarian sensitive cancer cells, similar than cisplatin against colon sensitive cells”.

In the case of `O=C1[O][Pt]2([OH])([OH])([NH]C3CCC(CC3)[NH]2)[O]C1=O` [Compound 7, (OC-6-33)-[ethanedioato(2)-O,O′](cis-1,4-cyclohexanediamine-N,N′)dihydroxyplatinum], the concentration for half-maximal inhibition (IC50) in the data set on A431 was determined as 59.5 ± 3.64 µM; in the data set on A375 it was 75.1 ± 6.54 µM; in the data set on HCT-15, 72.1 ± 4.74 µM; with MCF-7, 112 ± 9.52 µM; with SW480, 69.4 ± 11.5 µM; with DLD-1, 82.2 ± 5.54 µM. Moreover, the half-maximal inhibitory concentration (IC50) is 61.2 ± 5.51 µM in the data set on LoVo colon cancer cells; 69.4 ± 4.83 µM in [3]; 78.7 ± 4.6 µM in [4]; 66.9 ± 5.12 µM in data set [5]; 59.5 ± 3.64 µM in [6]. Moreover, the “R.F. (resistance factor)” value in data set [3] is 1.1; in [4], 1.3; in [5], 1.1. The “cytotoxic activity towards sensitive lines compared with reference drugs” value in data set [2] was “less effective than oxaliplatin and cisplatin”.

These data come from US9220705B2, “Method of treating colorectal cancer” (priority 2013, dated 2015).
